Here are results for twelve compounds from patent US20090048221A1, “Conjugates with Anti-Inflammatory Activity” (priority 2004, published 2009).

Counter-ions that a name gives are not always drawn.

In general, IC50 refers to the point on the concentration scale where inhibition reaches its midpoint. Low values mean inhibition by little substance, high ones a need for much substance.

One data set deals with Male Balb/cJ mice. Description: Lung neutrophilia induced by bacterial lipopolysaccharide. Format: in vivo. Particulars: 24 hours after LPS. The protocol:
Male Balb/cJ mice (Iffa Credo, Lyon, France) weighing 25 g were randomly grouped in three groups: test, positive and negative control (10 animals per each group). Vehicle, beclomethasone dipropionate or test substance were applied intranasally (i.n.) to Balb/cJ mice. Thirty minutes later, 60 μl of bacterial lipopolysaccharide (LPS), dissolved in PBS at the concentration of 167 μg/ml, was given i.n. to all groups except the negative control group, which received the same volume of PBS. Animals were sacrificed after 24 hours and bronchoalveolar lavage fluid (BALF) collected for determination of neutrophils and […] and TNF-α concentration. Cytokines were measured using sandwich ELISA (R&D Systems). Statistical analysis was performed using GraphPad prism software, one-way ANOVA Turkey Kramer Multiple comparison test.

The test system of another data set is Male Balb/C mice. Description: Model of lung eosinophilia in mice (OVA sensitised and challenged).
The next data set has as its system Sprague-Dawley rats. Description: Subcutaneous sponge implantation model. Particulars: seven days after implantation; for thymus weight: vs vehicle.
For data set [1], the system named is Mouse T-cell hybridoma 13. Description: Inhibition of mouse T-cell hybridoma 13 proliferation as a result of apoptosis induction. Format: cell-based. To be noted: for IC50: Mus musculus, T-cell, [3H]thymidine incorporation, overnight incubation; for inhibition of T-cell hybridoma 13 proliferation: in the concentrations from 1 μM to 1 nM. The protocol:
Triplicates of test steroid dilution in RPMI medium (Institute of Immunology, Zagreb) with 10% FBS were added to a 96 well plate. […] Then 1 μCi of [^3H]thymidine (Pharmacia, Piscataway, N.J. USA) was added and the mixture was incubated for an additional 3 hours. The cells were harvested by applying a vacuum over GF/C filter (Packard). Onto each well, 30 μl of Microscynt O scintillation liquid (Packard) was added and the incorporated radioactivity was measured on a β-scintillation counter (Packard).
(In general: Uptake of a labelled nucleoside into DNA is a usual measure of proliferation.)

The test system of another data set is Male Sprague-Dawley rats. Description: Croton oil induced ear edema in male Sprague-Dawley rats. Type of data set: in vivo. Particulars: applied topically once, n=8. The protocol:
Test and reference substances, as well as vehicle (acetone), were administered topically to the inner and the outer surface of the right ear of each animal with an automatic pipette, in a volume of 60 μL/ear (30 μL/surface), thirty minutes before the croton oil challenge. Test substances were administered in the doses of 2 or 5 mg/ear/60 μL of acetone. Dexamethasone was administered in the dose of 1 mg/ear/60 μL of acetone. Thirty minutes later, 20% croton oil emulsion in acetone was applied topically to the inner and the outer surface of the right ear of each animal with an automatic pipette, in a volume of 60 μL/ear (30 μL/surface). Five hours after the challenge, animals were euthanized by asphyxiation in 100% CO2 atmosphere. For assessing the auricular edema, 8 mm discs were cut out of left and right auricular pinna and weighed. The degree of edema was calculated by subtracting the weight of 8 mm disc of the untreated ear from that of the treated contralateral ear.

Data set [2] deals with T1, human glucocorticoid receptor (Homo sapiens, UniProt P04150).
T1 construct: expressed in transfected cells; host or cells: COS-1 cells, transient transfection with pcDNA3.1 Hygro(+) carrying the cloned cDNA
T1 sequence (P04150 1-777): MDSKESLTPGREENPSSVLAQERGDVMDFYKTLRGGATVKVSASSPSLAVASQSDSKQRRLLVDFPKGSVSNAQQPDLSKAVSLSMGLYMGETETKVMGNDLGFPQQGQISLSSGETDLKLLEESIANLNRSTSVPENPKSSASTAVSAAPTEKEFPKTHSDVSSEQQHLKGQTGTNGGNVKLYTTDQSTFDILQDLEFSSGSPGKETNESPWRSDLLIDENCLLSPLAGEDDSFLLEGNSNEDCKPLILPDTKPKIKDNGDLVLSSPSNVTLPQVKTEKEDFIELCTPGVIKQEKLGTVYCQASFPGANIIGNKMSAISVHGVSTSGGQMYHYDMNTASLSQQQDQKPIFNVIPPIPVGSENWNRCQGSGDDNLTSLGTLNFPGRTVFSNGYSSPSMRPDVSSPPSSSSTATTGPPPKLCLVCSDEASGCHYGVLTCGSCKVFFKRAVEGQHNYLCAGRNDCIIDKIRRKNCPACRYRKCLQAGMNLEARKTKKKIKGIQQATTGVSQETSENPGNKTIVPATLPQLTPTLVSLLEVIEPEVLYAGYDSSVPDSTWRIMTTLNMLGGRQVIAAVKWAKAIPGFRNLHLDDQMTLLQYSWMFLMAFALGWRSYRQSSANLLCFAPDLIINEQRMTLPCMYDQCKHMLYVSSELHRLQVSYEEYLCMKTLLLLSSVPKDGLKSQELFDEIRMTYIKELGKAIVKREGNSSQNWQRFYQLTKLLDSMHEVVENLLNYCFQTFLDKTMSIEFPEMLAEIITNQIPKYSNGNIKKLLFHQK
Description: Assay of binding to human glucocorticoid receptor ([3H]dexamethasone displacement in transfected COS-1 cells). Particulars: 24 nM [3H]dexamethasone, COS-1 cells transfected with human GR alpha. The protocol:
The cells were incubated at 37° C. in an atmosphere with 5% CO2 and after 5 hours the same volume of 20% FBS/DMEM was added.

In data set [3] the test system is interleukin 4, interleukin 5 and interferon γ production. Description: Inhibition of interleukin 4, interleukin 5 and interferon γ production by concanavalin-A induced murine splenocytes. Type of data set: cell-based, Balb/C mice. To be noted: in concentrations from 1 μM to 1 nM; concanavalin-A stimulated splenocytes, 72 hours. The source says:
Splenocytes were isolated from the spleen of Balb/C mice sacrificed by thiopental injection (Pliva, Zagreb, Croatia). Spleens were chopped and mononuclear cells separated on Histopaque 1083 (Sigma Diagnostics, St. Louis, Mo. USA Cat. No 1083-1). Into a 96-well plate, compounds diluted in RPMI medium (Institute of Immunology, Zagreb, Croatia) were pipetted with 10% foetal bovine serum (Biowhittaker) and cells (200000 per well) in the same medium, and concanavalin-A stimulator (Sigma 2002-2003 cat. No C5275) at a final concentration of […] were added. The positive control, in place of the dilution of compounds, consisted of RPMI medium with 10% foetal bovine serum and concanavalin-A in the same concentration of. Cells were incubated for 72 hours at 37° C., 95% humidity and in an atmosphere with 5% CO2. Until determination of cytokines, the cells were frozen at −70° C.
Cytokines interleukin 4, interleukin 5 and interferon γ were determined by the specific ELISA method, according to manufacturer's recommendations (R&D).
Inhibition (as percentage) was calculated using the following formula:
% inh=(1−[concentration of cytokines in sample]/[concentration of cytokines in positive control])*100

Setting [4] is: 4 mg/kg i.n., vs positive control.

Description for Male Balb/C mice: Male Balb/C mice with a body weight of 20-25 g were randomly divided into groups, and sensitised by an i.p. injection of ovalbumin (OVA, Sigma, St. Louis, Mo. USA) on day zero and day fourteen. On the twentieth day, the mice were subjected to a challenge test by i.n. (intranasal) application of OVA (positive control or test groups) or PBS (negative control). 48 hours after i.n. application of OVA, the animals were anaesthetized and the lungs were rinsed with 1 mL of PBS. The cells were separated on Cytospin 3 cytocentrifuge (Shandon). The cells were stained in Diff-Quick (Dade) and the percentage of eosinophils was determined by differential counting of at least 100 cells.
Beclomethasone (Pliva d.d.) were used as a standard substances, with positive and negative control. The compounds were administered daily i.n. or i.p. in different doses 2 days before the challenge test and up to the completion of the test.
Corticosterone levels were determined in plasma from each animal using a kit for determination of corticosterone (R&D systems).

`CC[C@H]1OC(=O)[C@H](C)[C@@H](O)[C@H](C)[C@@H](O)[C@](C)(O)C[C@@H](C)CN(CCCNCCC(=O)O[C@]2(C(=O)OC)[C@H](C)CC3C4C[C@H](F)C5=CC(=O)C=C[C@]5(C)[C@@]4(F)[C@@H](O)C[C@@]32C)[C@H](C)[C@@H](O)[C@]1(C)O` (stereo partly drawn) [Compound 10 phosphate salt]: in the data set on Male Balb/cJ mice (setting [4]), the “concentration of IL-6 in BALF” value is on record as “statistically significantly decreased”, the “concentration of TNF-α in BALF” value was “statistically significantly decreased” and the “neutrophils in BALF” value is listed as “statistically significantly decreased”.

As to `C[C@H]1C[C@H]2[C@@H]3CCC4=CC(=O)C=C[C@]4(C)[C@@]3(Cl)[C@@H](O)C[C@]2(C)[C@@]1(O)C(=O)CO` [beclomethasone], the plasma corticosterone levels entry with Male Balb/C mice (1 mg/kg intranasally, mice) is given as “significantly suppressed”. Besides, the thymus weight entry with Sprague-Dawley rats (2 mg/sponge) and with Sprague-Dawley rats (10 mg/sponge) was “significantly decreased” throughout. Also, in the data set with Sprague-Dawley rats (10 mg/sponge, vs vehicle control), the plasma corticosterone concentration result was “significantly decreased”.

In data set [1], `CC[C@H]1OC(=O)[C@H](C)[C@@H](O)[C@H](C)[C@@H](O)[C@](C)(O)C[C@@H](C)CN(CCCCCCNCCC(=O)O[C@]2(C(=O)OC)[C@H](C)CC3C4C[C@H](F)C5=CC(=O)C=C[C@]5(C)[C@@]4(F)[C@@H](O)C[C@@]32C)[C@H](C)[C@@H](O)[C@]1(C)O` (stereo partly drawn) [Compound 18] yielded an IC50 of 474 nM.

As for `CC[C@H]1OC(=O)[C@H](C)[C@@H](O)[C@H](C)[C@@H](O)[C@](C)(O)C[C@@H](C)CN(CCCCNCCC(=O)O[C@]2(C(=O)OC)[C@H](C)CC3C4C[C@H](F)C5=CC(=O)C=C[C@]5(C)[C@@]4(F)[C@@H](O)C[C@@]32C)[C@H](C)[C@@H](O)[C@]1(C)O` (stereo partly drawn) [Compound 17], the “reduction of ear edema” value with Male Sprague-Dawley rats (5 mg/ear) turned out to be 76.59%. In data set [1], this compound gave an IC50 of 41.6 nM.

`CC[C@H]1OC(=O)[C@H](C)[C@@H](O)[C@H](C)[C@@H](O)[C@](C)(O)C[C@@H](C)CN(CCCNC(=O)CCCCCCCCCCCNCCC(=O)O[C@]2(C(=O)OC)[C@H](C)CC3C4C[C@H](F)C5=CC(=O)C=C[C@]5(C)[C@@]4(F)[C@@H](O)C[C@@]32C)[C@H](C)[C@@H](O)[C@]1(C)O` (stereo partly drawn) [Compound 14]: half-maximal inhibition in data set [1] (IC50) required 455 nM.

Regarding `C[C@@H]1C[C@H]2[C@@H]3CCC4=CC(=O)C=C[C@]4(C)[C@@]3(F)[C@@H](O)C[C@]2(C)[C@@]1(O)C(=O)CO` [Dexamethasone, reference compound], the “reduction of ear edema” value in the data set on Male Sprague-Dawley rats (1 mg/ear) worked out at 85.77%.

Regarding `CC[C@H]1OC(=O)[C@H](C)[C@@H](O)[C@H](C)[C@@H](O)[C@](C)(O)C[C@@H](C)CN(CCCNCCC(=O)O[C@]2(C(=O)OC)CCC3C4C[C@H](C)C5=CC(=O)C=C[C@]5(C)C4[C@@H](O)C[C@@]32C)[C@H](C)[C@@H](O)[C@]1(C)O` (stereo partly drawn) [Compound 13], the IC50 in data set [1] came to 287 nM.

Take `CC[C@H]1OC(=O)[C@H](C)[C@@H](O)[C@H](C)[C@@H](O)[C@](C)(O)C[C@@H](C)CN(CCCNCCC(=O)O[C@]2(C(=O)OC)[C@H](C)CC3C4C[C@H](F)C5=CC(=O)C=C[C@]5(C)C4[C@@H](O)C[C@@]32C)[C@H](C)[C@@H](O)[C@]1(C)O` (stereo partly drawn) [Compound 9]: in data set [1], the IC50 was 303 nM and the “inhibition of T-cell hybridoma 13 proliferation” value was “exhibit inhibition”.

Take `CC[C@H]1OC(=O)[C@H](C)[C@@H](O)[C@H](C)[C@@H](O)[C@](C)(O)C[C@@H](C)CN(CCCNCCC(=O)O[C@]2(C(=O)OC)[C@H](C)CC3C4CCC5=CC(=O)C=C[C@]5(C)[C@@]4(F)[C@@H](O)C[C@@]32C)[C@H](C)[C@@H](O)[C@]1(C)O` (stereo partly drawn) [Compound 7]: in data set [1], the IC50 is 464 nM and the “inhibition of T-cell hybridoma 13 proliferation” value is “exhibit inhibition”. The “affinity for the glucocorticoid receptor (displacement of radioactive dexamethasone)” value in data set [2] is “have affinity for the glucocorticoid receptor”.

`CCC(=O)OCC(=O)[C@@]1(OC(=O)CC)[C@@H](C)C[C@H]2[C@@H]3CCC4=CC(=O)C=C[C@]4(C)[C@@]3(Cl)[C@@H](O)C[C@@]21C` [Beclometbasone dipropionate, beclomethasone dipropionate, reference compound]: in the data set with Male Balb/cJ mice (2 mg/kg i.n.), the “concentration of IL-6 in BALF” value is reported as “non-significantly decreased”, the “concentration of TNF-α in BALF” value is “non-significantly decreased” and the “neutrophils in BALF” value is on record as “non-significantly decreased”.

Regarding `CCOC(=O)[C@@]1(OC(=O)CCNCCCN2C[C@H](C)C[C@@](C)(O)[C@H](O)[C@@H](C)[C@H](O)[C@@H](C)C(=O)O[C@H](CC)[C@@](C)(O)[C@H](O)[C@H]2C)[C@H](C)CC2C3C[C@H](F)C4=CC(=O)C=C[C@]4(C)[C@@]3(F)[C@@H](O)C[C@@]21C` (stereo partly drawn) [Compound 16], it took 112 nM to reach half-maximal inhibition in data set [1] (IC50).

For the compound `CC[C@H]1OC(=O)[C@H](C)[C@@H](O)[C@H](C)[C@@H](O)[C@](C)(O)C[C@@H](C)CN(CCCNCCC(=O)O[C@]2(C(=O)OC)[C@H](C)CC3C4C[C@H](F)C5=CC(=O)C=C[C@]5(C)[C@@]4(F)[C@@H](O)C[C@@]32C)[C@H](C)[C@@H](O)[C@]1(C)O` (stereo partly drawn) [Compound 10], the “inhibition of the production of cytokines” value in data set [3] is on record as “inhibits the production of cytokines”. In addition, the “reduction of ear edema” value with Male Sprague-Dawley rats (2 mg/ear) is 51.58%. Further, the “reduction of ear edema” value with Male Sprague-Dawley rats (5 mg/ear) worked out at 85.53%. Moreover, in data set [1], 41.7 nM corresponded to half-maximal inhibition (IC50) and the “inhibition of T-cell hybridoma 13 proliferation” value was “exhibit inhibition”. The “number of eosinophils in the lung rinse with respect to positive control” value with Male Balb/C mice (t-test, p<0.05) is recorded as “statistically significantly reduced”. The “affinity for the glucocorticoid receptor (displacement of radioactive dexamethasone)” value in data set [2] is “have affinity for the glucocorticoid receptor”. Further, in the data set on Sprague-Dawley rats (10 mg/sponge, vs non-treated and vehicle sponges), the granulation tissue formation entry is “significantly reduced”.
